Laboratory results published in patent publication US10174120B2, “Methods and compositions for treating solid tumors and enhancing tumor vaccines” (THE TRUSTEES OF THE UNIVERSITY OF PENNSYLVANIA, priority 2007, dated 2019).
Entries after “also recorded” stand apart in the source; their conditions may differ.

How the values were obtained:
[1] = system: ID8 cells; assay: CTL assay, lysis of ID8 cells by CD3+/CD8+ splenocytes; type: cell-based, mice; settings: splenocytes from vaccinated animals treated with BQ-788
[2] = system: intraperitoneal ID8 cells; assay: Orthotopic, intraperitoneal ID8 model of ovarian cancer (ascites, survival); type: in vivo, mice; settings: vaccinated animals, BQ-788 every 2nd day for 2 weeks from two weeks after i.p. ID8, versus control peptide
Description: (§1) Two injections of 5×10 6th UV irradiated ID8 ovarian cancer cells were injected sub-cutaneously in C57Bl6 mice one week apart. Vaccinated mice and non-vaccinated controls were injected with 5×10^6 ID8 cells in the flank with […] matrigel or intraperitoneally. Tumors were allowed to grow for 2 or 5 weeks as indicated, and then treated with intraperitoneal injections of BQ-788 (300 mcg) or control peptide for 2 weeks.
(§2) Female C57BL/6 mice (8 weeks of age) were injected 3 times […]. with 1×10^6 UV-treated, apoptotic ID8 ovarian cancer cells (resuspended in 500 microliter (mcL) DMEM without supplements) in the flank. For the orthotopic, intraperitoneal model, mice were injected i.p. with 5×10^6ID8 cells.
The impact of BQ-788 on survival in vaccinated animals was also tested in the orthotopic, intraperitoneal ID8 model of ovarian cancer. Following vaccination, mice were injected i.p. with ID8 cells. Two weeks later, animals received either BQ-788 or control peptide every 2nd day for 2 weeks.

[3] = system: CD3+/CD8+ splenocytes; assay: T cell proliferation assay, CFSE-labeled splenocytes with DC pulsed with UV-radiated ID8; type: cell-based, mice; settings: BQ-788 versus control peptide, 6 days with ID8-pulsed DC
From the text: (§3) To confirm that ETRB plays a role in inhibiting T cell homing to human ovarian cancers, the ID8 syngeneic mouse model of ovarian cancer was utilized. This model responds modestly to potent dendritic cell (DC) vaccination. Strong expression of ETRB was detected in tumor endothelium in ID8 flank tumors by IHC (FIG. 7). Mice were vaccinated with a suboptimal preventive vaccine, containing UV-treated ID8 cells, which results in induction of systemic tumor-reactive interferon-gamma secreting T cells without significant delay in tumor growth Following vaccination, mice were inoculated with flank tumors, which were allowed to engraft for 2 or 5 weeks, and then mice were treated i.p. with the ETRB antagonist peptide, BQ-788, […] (SEQ ID No: 90), every 2nd day for 2 weeks or with control peptide that was a scrambled version of the above peptide. Additional controls included non-vaccinated animals treated with BQ-788 or control peptide. To confirm that the above vaccination scheme results in significant increase in the frequency of systemic tumor-reactive T cells, CD3^+/CD8^+ splenocytes from vaccinated animals treated with BQ-788 or control peptide, and from non-vaccinated mice, were labeled with CFSE and incubated with DC pulsed with UV-radiated ID8 for 6 days to assess proliferation. […] Proliferation of lymphocytes from vaccinated mice treated with BQ-788 or control peptide was similar.

[4] = system: ID8 flank tumors; assay: T cell infiltration into ID8 flank tumors (IHC, flow cytometry); type: in vivo, mice
Description: as §1
FACS analysis was performed using APC-CD45 (BD Pharmingen), PE-anti CD3, FITC anti CD4, and Biotin anti-CD8 coupled with streptavid PE-Cy7.
as §3
Tumor growth delay was not observed in non-vaccinated mice treated with BQ-788 or in vaccinated mice treated with control peptide. […] Flow cytometry from mechanically dissected tumors confirmed the results observed with IHC: In non-vaccinated animals treated with BQ-788 as well as in vaccinated animals treated with control peptide, CD3^+ cells represented on average 4% of the cells (range 0.5 to 12%), while vaccinated animals treated with BQ-788, CD3^+ cells represented 15% of the cells (range 8 to 30%), containing both CD4^+ and CD8^+ cells (FIG. 8).

[5] = system: HUVEC; assay: HUVEC treated with Endothelin and BQ-788: morphology and qRT-PCR; type: cell-based, human; settings: for morphology of HUVEC: BQ-788 in the presence of Endothelin, 6 days
Description: qRT-PCR was performed using primers to the 3′ end of transcripts spanning intron-exon boundaries whenever possible for 35 cycles using Sybergreen® (ABI, Foster City, Calif.), with primers at 150 nM concentrations. Primers were 18-24 nucleotides and were designed to have a TM of 59-61° C. All transcripts were confirmed using 3% agarose gel electrophoresis. Gene expression was normalized against β-actin in all studies unless stated otherwise.
(§4) Human vascular endothelial cells (HUVEC) were grown to 70% confluence in EBM media then treated with 50 nM Endothelin receptor B inhibitor BQ-788 (American peptide), or 2.5 nm Endothelin alone or in the presence of either 50 nm Endothelin receptor A inhibitor BQ123 (American peptide), or 50 nM Endothelin receptor B inhibitor BQ-788. Alternatively cells were treated with BQ-788 alone. Media was changed every 48 hrs for a total of 6 days. After 6 days cells were harvested for RNA, flow cytometry or incubated activated T cells. T cells were activated for 48 hours with either 5 ng/ml PMA […] or CD3 and CD28 beads. After activation T cells were labeled with CFSE and then incubated with pretreated endothelial cells for 2 hours with shaking. Cells were then washed 3× with PBS and adhesions was determined using a fluorescent plate reader.
Next, the effect of BQ-788 on human and murine endothelial cells or T cells was tested in the presence or absence of ET-1 ligand. In addition, the effect of endothelin receptor A antagonist BQ123 was tested. […] Moreover, there was a decrease in the expression of VE-Cadherin mRNA in BQ788-treated cells (FIG. 9).

[6] = system: ID8 flank tumors; assay: ID8 flank tumor model, BQ788 as tumor vaccine adjuvant (tumor growth); type: in vivo, mice
Description: as §1
The murine epithelial ovarian cancer cell line ID8, syngeneic to C57BL/6 mice was cultured in DMEM supplemented with 4% FBS, 13 ITS media supplement (bovine insulin (5 mg/L), human transferrin (5 mg/L), and sodium selenite ([…]); Sigma), and antibiotics.
as §2
To confirm that ETRB plays a role in inhibiting T cell homing to human ovarian cancers, the ID8 syngeneic mouse model of ovarian cancer was utilized. This model responds modestly to potent dendritic cell (DC) vaccination. Strong expression of ETRB was detected in tumor endothelium in ID8 flank tumors by IHC (FIG. 7). […]

[7] = system: HUVEC; assay: Reactive oxidative species (ROS) quantified in HUVEC; type: cell-based, human; settings: for ROS in HUVEC: exposure to rhET-1, with or without BQ788
Description: (§5) To further test the role of ETRB signaling in adhesion, the effects of NO antagonist L-NAME and NO donor DETANO were tested under the above experimental conditions. […] Thus, ET-1, through ETRB, downregulates the ability of endothelium to respond to inflammatory signals present in the tumor microenvironment such as TNF-α, which is restored by blocking ETRB through BQ788. Further, an NO antagonist abrogated the effects of ET-1, while NO donor reproduced its effect, showing that NO plays a role in the inhibitory effect of ET-1. To further test whether ETRB signaling upregulates NO in endothelial cells, reactive oxidative species (ROS) were quantified in HUVEC.

[8] = system: HUVEC; assay: Adhesion of activated T cells to pretreated HUVEC; type: cell-based, human; settings: for adherence of activated human T cells to HUVEC: T cells activated with PMA or CD3/CD28, Endothelin plus BQ-788 compared to Endothelin alone, Endothelin and ETRA antagonist, or untreated; for T cell adhesion to HUVEC in the presence of TNF- and ET-1: NO antagonist / NO donor under the same experimental conditions
Description: as §4
The ability of activated T cells to adhere to BQ-788-treated HUVEC was also tested. […] T cell adherence to BQ788/Endothelin-treated HUVEC was 40% as effective as TNF-alpha activation of HUVEC. Thus, under the conditions utilized, BQ788 induces expression of ICAM-1 on endothelial cells and leads to increased T cell adhesion to tumor endothelium, playing a role in its increase of intratumoral T cells and enhancement of vaccine efficacy.
as §5

SMILES: CCCC[C@@H](NC(=O)[C@@H](Cc1cn(C(=O)OC)c2ccccc12)NC(=O)[C@H](CC(C)(C)C)NC(=O)N1[C@H](C)CCC[C@@H]1C)C(=O)O [BQ-788]
- ID8 cell killing by CD3+/CD8+ splenocytes [1]: robust ID8 cell killing
- ascites development [2]: developed ascites later
- survival [2]: significant prolongation of survival
- proliferation of lymphocytes from vaccinated mice [3]: similar
- numbers of CD3+, CD8+ T cells in tumors, FACS analysis ([4]; BQ788 treated animals as compared to control animals): increased numbers of CD3^+, CD8^+ T cells
- intratumoral CD8+ T cells (IHC) ([4]; non-vaccinated animals treated with BQ-788): scarce intratumoral CD8^+ T cells
- CD3+ cells as share of the cells of dissected tumors, flow cytometry, average ([4]; non-vaccinated animals treated with BQ-788, stated together with vaccinated animals treated with control peptide): 4%
- CD3+ cells as share of the cells of dissected tumors, flow cytometry ([4]; vaccinated animals treated with BQ-788): 15%
- intratumoral CD8+ T cells (IHC) ([4]; vaccinated mice treated with BQ-788): very strong infiltration by CD8^+ T cells
- intratumoral CD8+ T cells (IHC) ([4]; vaccinated mice treated with BQ-788, listed as BQ788): significant numbers of CD8^+ T cells
- mRNA levels for ICAM-2, ICAM-3, E-selectin, JAM, CXCL-11, CCL-19, or CCL-21 ([5]; BQ788-treated HUVEC): No specific changes were detected
- expression of VE-Cadherin mRNA ([5]; BQ788-treated HUVEC in the presence of Endothelin): decrease; also recorded: decreased expression of VE-Cadherin
- morphology of HUVEC [5]: distinct morphological change
- morphology of HUVEC ([5]; listed as BQ788): Morphologic changes
- increased expression of ICAM-1 mRNA, qRT-PCR ([5]; Endothelin and BQ-788 compared to untreated HUVEC, Endothelin alone, or Endothelin plus ETRA antagonist): over 7 fold
- expression of ICAM1, qRT-PCR (in words) ([5]; Endothelin+BQ788-treated HUVEC as compared to Endothelin alone or BQ788 alone): increased expression of ICAM1
- tumor growth delay ([6]; non-vaccinated mice treated with BQ-788): not observed
- tumor growth ([6]; vaccinated mice, i.p. BQ-788 every 2nd day for 2 weeks, starting at 2 or at 5 weeks after engraftment): significant reduction in tumor growth
- suppression of ROS compared with bacterial LPS ([7]; HUVEC exposed to ET-1): as potent as bacterial LPS
- ROS in HUVEC [7]: abrogated such response to ET-1
- T cell adherence relative to TNF-alpha activation of HUVEC ([8]; BQ788/Endothelin-treated HUVEC): 40%
- adherence of activated human T cells to HUVEC [8]: increased adherence
- adherence of activated human T cells to HUVEC ([8]; listed as BQ788): increased ability of T cells to adhere

SMILES: NCCN(CCN)/[N+]([O-])=N/O [DETANO]
- T cell adhesion to HUVEC in the presence of TNF- and ET-1 [8]: mimicked the effects of ET-1

SMILES: COC(=O)[C@@H](N)CCCNC(=N)N[N+](=O)[O-] [L-NAME]
- T cell adhesion to HUVEC in the presence of TNF- and ET-1 [8]: restored T cell adhesion

SMILES: CC[C@H](C)[C@H](NC(=O)[C@H](CC(=O)O)NC(=O)[C@H](CC(C)C)NC(=O)[C@H](Cc1c[nH]cn1)NC(=O)[C@@H]1CSSC[C@H](N)C(=O)N[C@@H](CO)C(=O)N[C@H]2CSSC[C@H](NC(=O)[C@H](CCC(=O)O)NC(=O)[C@H](CCCCN)NC(=O)[C@H](CC(=O)O)NC(=O)[C@H](CCSC)NC(=O)[C@H](CC(C)C)NC(=O)[C@H](CO)NC(=O)[C@H](CO)NC2=O)C(=O)N[C@@H](C(C)C)C(=O)N[C@@H](Cc2ccc(O)cc2)C(=O)N[C@@H](Cc2ccccc2)C(=O)N1)C(=O)N[C@H](C(=O)N[C@@H](Cc1c[nH]c2ccccc12)C(=O)O)[C@@H](C)CC [rhET-1]
- ROS in HUVEC [7]: upregulated ROS
